Where a name gives a salt, the structure may show the parent alone.
Key:
[1] = test system: mice; assay: Maximal Electroshock Seizure Test (tonic-extensor convulsions of hind legs); assay type: in vivo, ddy Male mice; details: Mus musculus; antiepileptic action; oral, electric shock 1 hour after dosing (200 Hz, 50 mA, 0.2 second)
Experimental: ddy Male mice (body weight: 25-30 g) were used in groups each of which consisted of 5-10 mice. A test compound was orally administered. One hour later, an electric shock (200 Hz, 50 mA, 0.2 second) was applied through corneal electrodes. […] Antiepileptic action (%) was calculated in accordance with the following calculation formula, and ED50 (mg/Kg) was determined therefrom. [formula]

[2] = in vivo; design: species or system ddy Male mice; details: mouse, po
Experimental: ddy Male mice (body weight: 25-30 g) were used in groups each of which consisted of 5-10 mice. A test compound was orally administered. One hour later, each mouse was caused to hold with the fore paws thereof a stainless steel wire whose diameter was 1.5 mm. […] Traction activity (%) was calculated in accordance with the following calculation formula, and ED50 (mg/Kg) was determined therefrom. [formula]

[3] = in vivo; design: species or system ddy Male mice; details: mouse, po; remark: listed apart in the source
Experimental: ddy Male mice (body weight: 25-30 g) were used in groups each of which consisted of 5-10 mice. A test compound was orally administered One hour later, each mouse was placed on a rod which rotated a full turn per second. Mice which fell down within 120 seconds were counted. Rotorod action (%) was calculated in accordance with the following calculation formula, and ED50 (mg/Kg) was determined therefrom. [formula]

[4] = Acute Toxicity (death within 5 days); details: mouse, in vivo, oral, death in 5 days (LD50 in the method text), read-out: ED50
Experimental: ddy Male mice (body weight: 25-30 g) were used in groups each of which consisted of 5-6 mice. A test compound was orally administered. Mice which died in 5 days were counted. Death rate (%) wa calculated in accordance with the following calculation formula, and LD50 (mg/Kg) was determined therefrom. [formula]

Row | SMILES | ED50 [1] [mg/kg] | TD50 at 1 h [2] [mg/kg] | TD50 at 1 h [3] [mg/kg] | LD50 at 120 h [4] [mg/kg]
1 | Cl.Clc1cccc(-c2cc(-n3cc(Cn4ccnc4)c4ccccc43)on2)c1 [Example 10, 1-{3-(3-Chlorophenyl)-5-isoxazolyl)-3-(1-imidazolyl)methylindole hydrochloride] | 20 to 40 |  |  | 
2 | Cl.FC(F)(F)c1ccc(-c2cc(-n3cc(Cn4ccnc4)c4ccccc43)on2)cc1 [Example 8, 1-{3-(4-Trifluoromethylphenyl)-5-isoxazolyl}-3-(1-imidazolyl)methylindole hydrochloride] | 20 to 40 |  |  | 
3 | COc1cccc(-c2cc(-n3cc(Cn4ccnc4)c4ccccc43)on2)c1.Cl [Example 11, 1-(3-(3-Methoxyphenyl)-5-isoxazolyl}-3-(1-imidazolyl)methylindole hydrochloride] | 14 | > 750 | > 750 | > 1000
4 | Cc1ccc(-c2cc(-n3cc(Cn4ccnc4)c4ccccc43)on2)cc1 [Example 5, 1-(3-(p-Toluyl)-5-isoxazolyl}-3-(l-imidazolyl)-methylindole hydrochloride] | 16 |  |  | 
5 | Cl.N#Cc1ccc(-c2cc(-n3cc(Cn4ccnc4)c4ccccc43)on2)cc1 [Example 7, 1-(3-(4-Cyanophenyl)-5-isoxazolyl)-3-(1-imidazolyl)methylindole hydrochloride] | 20 to 40 |  |  | 
6 | Cl.Clc1ccccc1-c1cc(-n2cc(Cn3ccnc3)c3ccccc32)on1 [Example 9, 1-{3-(2-Chlorophenyl)-5-isoxazolyl}-3-(1-imidazolyl)methylindole hydrochloride] | 20 to 40 |  |  | 
7 | O=C1NC(=O)C(c2ccccc2)(c2ccccc2)N1 [Phenytoin.Na, reference compound] | 7 | 350 | 186 | 300 to 500
8 | Cl.Fc1ccc(-c2cc(-n3cc(Cn4ccnc4)c4ccccc43)on2)cc1 [Example 3, 1-{3-(4-Fluorophenyl)-5-isoxazolyl)-3-(1-imidazolyl)methylindole hydrochloride] | 20 to 40 |  |  | 
9 | Cl.c1ccc(-c2cc(-n3cc(Cn4ccnc4)c4ccccc43)on2)cc1 [Example 1, 1-(3-phenyl-5-isoxazolyl)-3-(1-imidazolyl)methylindole hydrochloride] | 9 | > 750 | 500 | > 1000
10 | Cl.Clc1ccc(-c2cc(-n3cc(Cn4ccnc4)c4ccccc43)on2)cc1 [Example 4, 1-{3-(4-Chlorophenyl)-5-isoxazolyl}-3-(1-imidazolyl)methylindole hydrochloride] | 20 to 40 |  |  | 
11 | COc1ccc(-c2cc(-n3cc(Cn4ccnc4)c4ccccc43)on2)cc1.Cl [Example 6, 1-{3-(4-Methoxyphenyl)-5-isoxazolyl}-3-(1-imidazolyl)methylindol hydrochloride] | 7 | > 750 | > 750 | > 1000

Source: patent US5112841A, “Imidazole derivatives and antiepileptics comprising said imidazole derivatives as effective ingredients” (Mitsui Toatsu Chemicals, Incorporated, priority 1990, dated 1992)
